The text below walks through data of ChEMBL document CHEMBL1201862, “PubChem BioAssay data set” (2004).

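The compound was tested at five concentrations on cells cultured in 96-well plates, with a 48-hour exposure period. At the GI50, growth is halved.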 Activity calls are given as the source filed them. Rule as the data show it: active = GI50 up to about 1.1 µM and inactive = higher.

Test systems include MOLT-4; SK-MEL-5; DU-145; HOP-62; NCI/ADR-RES; K562; COLO 205; SNB-75; CCRF-CEM; SF-539; SR; SF-295; T47D; NCI-H23; OVCAR-5; EKVX; A498; UACC-257; M14; HOP-92.
What all share (assay): NCI tumour cell line growth inhibition, 48 h

With `N=C(N)NNC(=O)C(=O)O`, the GI50 with MOLT-4, in the test with SK-MEL-5, with DU-145, with HOP-62, with NCI/ADR-RES and in the test on K562 was > 100 µM (inactive) each time. In addition, the GI50 in the test with COLO 205, with SNB-75, with CCRF-CEM, in the test on SF-539, in the test on SR and in the test on SF-295 was > 100 µM (inactive) each time. The GI50 with T47D, in the test on NCI-H23, in the test with OVCAR-5, in the test on EKVX, in the test on A498 and with UACC-257 was > 100 µM (inactive) each time. Besides, the GI50 in the test with M14 is > 100 µM (inactive).
Take `CCNC(=S)N/N=C/c1cc(OC)ccc1O`: the GI50 is 67.1 µM (inactive) with MOLT-4; > 100 µM (inactive) in the test on SK-MEL-5; > 100 µM (inactive) with DU-145; > 100 µM (inactive) with HOP-62; 83.6 µM (inactive) with NCI/ADR-RES; 97.9 µM (inactive) with K562. The GI50 was > 100 µM (inactive) in the test on COLO 205; > 100 µM (inactive) in the test with SNB-75; 66.5 µM (inactive) in the test on CCRF-CEM; > 100 µM (inactive) with SF-539; 45.1 µM (inactive) in the test on HOP-92; 69.5 µM (inactive) in the test with SR. The GI50 is 70.3 µM (inactive) in the test with SF-295; 24.3 µM (inactive) with T47D; > 100 µM (inactive) in the test on NCI-H23; > 100 µM (inactive) in the test with OVCAR-5; 89.1 µM (inactive) in the test on EKVX; > 100 µM (inactive) in the test on UACC-257. In addition, in the test on M14, the GI50 was > 100 µM (inactive).
Regarding `COC(=O)C1=C(C)C=C(N2CCOCC2)C(C(=O)OC)C1c1ccccc1` (configuration not stated), the GI50 in the test with MOLT-4, in the test on SK-MEL-5, in the test on DU-145, in the test with HOP-62, in the test with NCI/ADR-RES and in the test on K562 was > 10 µM (inactive) each time. The GI50 in the test on COLO 205, with SNB-75, in the test with CCRF-CEM, with SF-539, in the test with HOP-92 and in the test with SF-295 was > 10 µM (inactive) in each case. For the same compound, the GI50 in the test with T47D, in the test on NCI-H23, with OVCAR-5, in the test with EKVX, with A498 and with UACC-257 was > 10 µM (inactive) throughout. Moreover, the GI50 in the test with M14 is > 10 µM (inactive).
Consider `COC(=O)/C=C\C(C#N)(C#N)/N=C/c1cccc(OC)c1`, for which the GI50 is 1.9 µM (inactive) with MOLT-4; 16.8 µM (inactive) in the test on SK-MEL-5; 14.5 µM (inactive) in the test on DU-145; > 42.7 µM (inactive) in the test on HOP-62; 14.4 µM (inactive) with NCI/ADR-RES; 11.1 µM (inactive) with K562. Moreover, the GI50 in the test on COLO 205 was 2.15 µM (inactive); with SNB-75 it was 15.9 µM (inactive); in the test on CCRF-CEM, 1.72 µM (inactive); in the test on SF-539, 2.53 µM (inactive); in the test on HOP-92, 2.3 µM (inactive); in the test with SF-295, 32.7 µM (inactive). The GI50 in the test on T47D was 4.8 µM (inactive); in the test on NCI-H23, 6.9 µM (inactive); in the test with OVCAR-5 it was 8.49 µM (inactive); in the test with EKVX, 11.6 µM (inactive); in the test on A498, 18.6 µM (inactive); in the test with UACC-257, 14 µM (inactive). For the same compound, the GI50 with M14 is 4.12 µM (inactive).
On to `[N-]=[N+]=C(C(=O)OCC#CCOC(=O)C(=[N+]=[N-])S(=O)(=O)c1ccccc1)S(=O)(=O)c1ccccc1`, for which the GI50 with MOLT-4, with SK-MEL-5, in the test on DU-145, in the test with HOP-62, in the test on NCI/ADR-RES and in the test with K562 was > 10 µM (inactive) throughout. Also, the GI50 in the test with COLO 205, in the test with SNB-75, with CCRF-CEM, in the test on SF-539, in the test on HOP-92 and in the test with SF-295 was > 10 µM (inactive) in each case. For the same compound, the GI50 in the test on T47D, in the test with NCI-H23, in the test with OVCAR-5, in the test on EKVX, with A498 and in the test with UACC-257 was > 10 µM (inactive) in each case. The GI50 in the test on M14 is > 10 µM (inactive).
In the case of `CC(=O)c1c2c(cc3c1CCC3)CCC2`, the GI50 with MOLT-4 was 20.6 µM (inactive); in the test on SK-MEL-5 it was > 100 µM (inactive); in the test with DU-145, > 100 µM (inactive); with HOP-62, > 100 µM (inactive); in the test on NCI/ADR-RES it was > 100 µM (inactive); with K562, 20.7 µM (inactive). The GI50 with COLO 205 is > 100 µM (inactive); in the test on SNB-75, > 100 µM (inactive); with CCRF-CEM, 40.7 µM (inactive); with SF-539 it was > 100 µM (inactive); in the test with SR, > 100 µM (inactive); in the test on SF-295 it was > 100 µM (inactive). Besides, the GI50 in the test on T47D was 15.4 µM (inactive); with NCI-H23, > 100 µM (inactive); in the test with OVCAR-5, > 100 µM (inactive); in the test on EKVX it was 63.5 µM (inactive); with A498, 36.5 µM (inactive); with UACC-257 it was > 100 µM (inactive). Moreover, in the test with M14, the GI50 is > 100 µM (inactive).
With `CCCC(Sc1nc(N)nc2nc[nH]c12)C(=O)O` (configuration not stated), the GI50 in the test on MOLT-4 is 33.2 µM (inactive); with SK-MEL-5, > 100 µM (inactive); in the test with DU-145, 57.9 µM (inactive); in the test with HOP-62, > 100 µM (inactive); in the test on NCI/ADR-RES, 41.9 µM (inactive); in the test with K562, 37.7 µM (inactive). For the same compound, the GI50 with COLO 205 was > 100 µM (inactive); in the test on SNB-75, > 100 µM (inactive); with CCRF-CEM, 81.5 µM (inactive); with HOP-92 it was > 100 µM (inactive); in the test on SF-295 it was 59.7 µM (inactive); in the test on T47D, > 100 µM (inactive). For the same compound, the GI50 with NCI-H23 is > 100 µM (inactive); with OVCAR-5, 63.1 µM (inactive); with A498 it was > 100 µM (inactive); with UACC-257, > 100 µM (inactive); in the test with M14, 53.2 µM (inactive).
Regarding `NCCCN(CCCCN(CCCN)Cc1ccccc1)Cc1ccccc1`, the GI50 with MOLT-4 was 20.1 µM (inactive); in the test with SK-MEL-5 it was 57.8 µM (inactive); in the test with DU-145, 42.2 µM (inactive); in the test on NCI/ADR-RES, > 100 µM (inactive); in the test with K562 it was 54.2 µM (inactive); in the test with COLO 205 it was 32.4 µM (inactive). Also, the GI50 with SNB-75 was 4.57 µM (inactive); with CCRF-CEM, 30.3 µM (inactive); in the test with SF-539, 27.6 µM (inactive); in the test on HOP-92, > 10 µM (inactive); with SF-295 it was 69 µM (inactive); in the test on T47D, > 100 µM (inactive). The GI50 with NCI-H23 was 42.2 µM (inactive); in the test with OVCAR-5 it was 17.5 µM (inactive); with EKVX it was 21.2 µM (inactive); in the test with A498 it was > 100 µM (inactive); with UACC-257, 62.1 µM (inactive); in the test with M14, 41.6 µM (inactive).
Take `Cc1ccc2nc(-c3ccc(NC(=O)c4ccc(N)cc4)c(S(=O)(=O)O)c3)sc2c1`: the GI50 with MOLT-4, in the test on SK-MEL-5, in the test on DU-145, in the test with HOP-62, with NCI/ADR-RES and with K562 was > 100 µM (inactive) in each case. Moreover, the GI50 in the test with COLO 205, with SNB-75, in the test with CCRF-CEM, in the test on HOP-92, with SF-295 and with T47D was > 100 µM (inactive) throughout. The GI50 in the test with NCI-H23, in the test with OVCAR-5, with EKVX, in the test on A498, with UACC-257 and in the test on M14 was > 100 µM (inactive) each time.
For the compound `C/C(=N\NC(=S)N(C)C)c1ccccn1`, the GI50 is < 0.01 µM (active) in the test with MOLT-4; 0.178 µM (active) with SK-MEL-5; 0.161 µM (active) in the test on DU-145; 0.033 µM (active) in the test with HOP-62; < 0.01 µM (active) in the test with NCI/ADR-RES; < 0.01 µM (active) with K562. In addition, the GI50 in the test with COLO 205 is < 0.01 µM (active); in the test with SNB-75 it was 0.486 µM (active); with CCRF-CEM, < 0.01 µM (active); in the test with SF-539 it was 0.231 µM (active); in the test with HOP-92, 0.498 µM (active); in the test with SF-295, < 0.01 µM (active). Besides, the GI50 is < 0.01 µM (active) in the test with T47D; < 0.01 µM (active) in the test with NCI-H23; 0.0373 µM (active) in the test on OVCAR-5; 0.0284 µM (active) with EKVX; 0.519 µM (active) with A498; < 0.01 µM (active) in the test with UACC-257. Moreover, the GI50 in the test on M14 was < 0.01 µM (active).
With `O=C(O)c1cc(NCc2cc(O)ccc2O)ccc1O` [LAVENDUSTIN C], the GI50 with SK-MEL-5, in the test on DU-145, in the test on HOP-62, in the test on NCI/ADR-RES, in the test with COLO 205 and in the test on SNB-75 was > 100 µM (inactive) in each case. The GI50 was 10.6 µM (inactive) in the test with CCRF-CEM; > 100 µM (inactive) in the test on SF-539; > 100 µM (inactive) with HOP-92; > 100 µM (inactive) with SF-295; 35.6 µM (inactive) with T47D; > 100 µM (inactive) in the test with NCI-H23. For the same compound, the GI50 in the test on OVCAR-5, with EKVX, in the test with A498 and in the test with UACC-257 was > 100 µM (inactive) in each case.
